21 compounds from PubChem BioAssay AID2649 (Southern Research Specialized Biocontainment Screening …, 2010) can be followed below.

For assay [1], the system named is MAGI-CCR5 HeLa cells viability, MTS, 5% serum. As to the kind of experiment: MAGI-CCR5 HeLa cell viability loss – MTS, 5% and 10% serum, cytotoxicity control for HIV-1 antiviral lead project, SAR follow-up (AID 2649).
For assay [2], the system named is MAGI-CCR5 HeLa cells viability, MTS, 10% serum. Described as above.

Active and inactive are the calls of the source.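 How the source made its calls: active means lowest viability as percent of untreated cell control, measured with 5% serum, under 70% cytotoxic; inactive means the rest.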 Bounds are passed on as bounds.

In the case of `CSc1nnc(-c2ccccc2N=Cc2c(C)[nH]n(-c3ccc4ccccc4c3)c2=O)c(=O)[nH]1`, the CC50 (usually the concentration at which the toxic effect on the cells reaches its halfway point) in assay [1] is > 100 µM (inactive); in assay [2] it was more than 100 µM.

The compound `O=C1NC(=S)N(c2ccc(F)cc2)C(=O)/C1=C\c1ccoc1` yielded a CC50 in assay [2] of more than 100 µM.

`Oc1c(Cl)cc(Cl)c(Cl)c1Cc1c(O)c(Cl)cc(Cl)c1Cl`: the 50% cytotoxic concentration (CC50) in assay [1] is 56.5 µM; in assay [2] it was more than 100 µM.

With `O=[N+]([O-])c1cc([N+](=O)[O-])c2oc(-c3ccccc3)c(Br)c2c1O`, the values for the CC50 in assay [1] and in assay [2] were 38.7 µM and more than 100 µM, respectively.

On to `O=C(N/N=C/c1c(O)n(C2CCCCC2)c(=S)[nH]c1=O)c1ccccc1O`, for which the CC50 in assay [1] was > 100 µM (inactive); in assay [2] it was more than 100 µM.

As for `N#C/C(=C\c1ccc(OCc2ccc(Cl)cc2)cc1)C(=O)Nc1cccc(C(=O)O)c1`, the CC50 in assay [1] was > 100 µM (inactive); in assay [2], more than 100 µM.

Take `O=C(O)CCCN1C(=O)/C(=C/c2ccc(-c3nc4ccccc4s3)o2)SC1=S`: the values for the CC50 in assay [1] and in assay [2] were > 100 µM (inactive) and more than 100 µM, respectively.

Turning to `Cc1c(Cl)cccc1NS(=O)(=O)c1ccc2c(c1)C1C=CCC1C(c1ccc(C(=O)O)cc1)N2` (stereo not drawn), the figures for the CC50 in assay [1] and in assay [2] were 71.7 µM and more than 100 µM, respectively.

In the case of `N#C/C(=C\c1ccc(O)c([N+](=O)[O-])c1)c1nc2ccccc2s1`, the CC50 in assay [1] is > 100 µM (inactive); in assay [2] it was more than 100 µM.

For the compound `COC(=O)c1sc(-c2ccc(C(C)(C)C)cc2)cc1NC(=O)c1ccccc1C(=O)O`, the CC50 was 88.7 µM in assay [1] and more than 100 µM in assay [2].

With `Cc1c2c(=O)n(-c3nc4ccccc4s3)nc-2cc(O)n1Cc1ccccc1`, the values for the CC50 in assay [1] and in assay [2] were > 100 µM (inactive) and more than 100 µM, respectively.

With `CC(C)NC(=O)c1sc(=S)n2c1[nH]c(=O)c1ccc(C(=O)NCCc3ccc(Cl)cc3)cc12`, the CC50 in assay [1] was > 100 µM (inactive); in assay [2], more than 100 µM.

Take `CC(C)(C)c1cc(-c2csc(Nc3ccccc3)[n+]2Cc2ccc(C(=O)O)cc2)cc(C(C)(C)C)c1O`: the figures for the CC50 in assay [1] and in assay [2] were 54.9 µM and 62.4 µM, respectively.

`COc1cc(/C=C2\SC(=O)N(c3ccccc3Cl)C2=O)cc([N+](=O)[O-])c1O` displayed a CC50 in assay [2] of more than 100 µM.

As for `CCC(Sc1nc2ccsc2c(=O)n1Cc1ccc(C(=O)O)cc1)C(=O)Nc1ccc(C)c(Cl)c1` (stereo not drawn), the results for the CC50 in assay [1] and in assay [2] were > 100 µM (inactive) and more than 100 µM, respectively.

For `CCOC(=O)c1sc(N2C(=O)C(O)=C(C(=O)c3ccc(C)o3)C2c2cccc([N+](=O)[O-])c2)nc1C` (stereo not drawn), the CC50 in assay [1] was > 100 µM (inactive); in assay [2], more than 100 µM.

As for `O=C(O)c1ccccc1N=Nc1c(O)[nH]c2ccc([N+](=O)[O-])cc12`, the figures for the CC50 in assay [1] and in assay [2] were > 100 µM (inactive) and more than 100 µM, respectively.

For `COc1cc(/C=N/NS(=O)(=O)c2ccc3ccccc3c2)ccc1OCc1ccc(C(=O)O)cc1`, the CC50 is > 100 µM (inactive) in assay [1] and more than 100 µM in assay [2].

Take `CCOC(=O)C1=C(C)N=c2sc(=Cc3ccc(OCC(=O)O)cc3)c(=O)n2C1c1ccc(OC(C)C)cc1` (stereo not drawn): in assay [2], the CC50 was more than 100 µM.

In turn, `CCC(C)(C)C1CCc2c(sc(NC(=O)c3ccccc3C(=O)O)c2C#N)C1` (stereo not drawn) registered a cytotoxic concentration (CC50) in assay [2] of more than 100 µM.

For the compound `CCOc1cc(/C=C2\SC(=O)N(CC(=O)Nc3ccccc3F)C2=O)cc([N+](=O)[O-])c1O`, the CC50 in assay [1] is > 100 µM (inactive); in assay [2], more than 100 µM.
